# Reference: PubChem BioAssay AID342 (DTP/NCI, 2004)
# Several values for one entry are separate records, joined by “and”; a condition that tells them apart may be missing. Equal values may be shown once.
# Test system: Swiss mice, Sarcoma 180 sc, mean tumor weight T/C
# Test: NCI In Vivo Anticancer Drug Screen. Data for tumor model Sarcoma 180 (subcutaneous) in Swiss mice
# Settings: endpoint: mean tumor weight, higher = larger tumour
# Method in brief: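 Mice bearing transplanted tumors were treated with compound, and survival or tumor size was measured. Values are expressed as the treated-group measurement (T) divided by the vehicle-treated control measurement (C).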
smiles,measurement,setting,value
COc1cccc(/C=N\NC(=O)C(C)SC(C)C(=O)N/N=C/c2cccc(OC)c2)c1 (stereo unspecified),T/C,"dose: 25.0 mg/kg/injection, schedule: Q01DX007 (ip), vehicle: carboxymethylcellulose (CMC)",68 % of control
same,T/C,"dose: 38.0 mg/kg/injection, schedule: Q01DX007 (ip), vehicle: carboxymethylcellulose (CMC)",62 % of control
same,T/C,"dose: 42.0 mg/kg/injection, schedule: Q#A X014 (ip), vehicle: carboxymethylcellulose (CMC)",78 % of control
same,T/C,"dose: 53.0 mg/kg/injection, schedule: Q01DX007 (ip), vehicle: methylcellulose (MC)",77 % of control
same,T/C,"dose: 56.0 mg/kg/injection, schedule: Q01DX007 (ip), vehicle: carboxymethylcellulose (CMC)",35 % of control
same,T/C,"dose: 63.0 mg/kg/injection, schedule: Q#A X014 (ip), vehicle: carboxymethylcellulose (CMC)",79 % of control
same,T/C,"dose: 80.0 mg/kg/injection, schedule: Q01DX007 (ip), vehicle: methylcellulose (MC)",63 % of control
same,T/C,"dose: 95.0 mg/kg/injection, schedule: Q#A X014 (ip), vehicle: carboxymethylcellulose (CMC)",65 % of control
same,T/C,"dose: 120.0 mg/kg/injection, schedule: Q01DX007 (ip), vehicle: methylcellulose (MC)",47 % of control
same,T/C,"dose: 142.5 mg/kg/injection, schedule: Q#A X014 (ip), vehicle: carboxymethylcellulose (CMC)",61 % of control
same,T/C,"dose: 180.0 mg/kg/injection, schedule: Q01DX007 (ip), vehicle: methylcellulose (MC)",59 % of control
same,T/C,"dose: 270.0 mg/kg/injection, schedule: Q01DX007 (ip), vehicle: methylcellulose (MC)",58 % of control
same,T/C,"dose: 300.0 mg/kg/injection, schedule: Q01DX007 (ip), vehicle: carboxymethylcellulose (CMC)",64 % of control
same,T/C,"dose: 400.0 mg/kg/injection, schedule: Q01DX007 (ip), vehicle: carboxymethylcellulose (CMC)",59 % of control
C/C=C1/CN(C)C2Cc3c([nH]c4ccccc34)C(c3cc4[nH]c5c(c4cc3OC)CCN3CC4CC(C(C)O)C3C5(C(=O)OC)C4)CC1C2C(=O)OC (stereo unspecified),T/C,"dose: 10.0 mg/kg/injection, schedule: Q01DX007 (ip), vehicle: water",54 % of control
same,T/C,"dose: 20.0 mg/kg/injection, schedule: Q01DX007 (ip), vehicle: water",97 % of control
same,T/C,"dose: 30.0 mg/kg/injection, schedule: Q01DX007 (ip), vehicle: water",87 % of control
same,T/C,"dose: 40.0 mg/kg/injection, schedule: Q01DX007 (ip), vehicle: water",80 % of control
CC(C)CC(C)(C[N+](=O)[O-])C[N+](=O)[O-],T/C,"dose: 4.0 mg/kg/injection, schedule: Q01DX007 (ip), vehicle: saline",93 % of control
CC(C)(C#N)C#N,T/C,"dose: 125.0 mg/kg/injection, schedule: Q01DX007 (ip), vehicle: saline",30 % of control
same,T/C,"dose: 187.0 mg/kg/injection, schedule: Q01DX007 (ip), vehicle: saline",36 % of control
same,T/C,"dose: 375.0 mg/kg/injection, schedule: Q01DX007 (ip), vehicle: saline",52 % of control and 58 % of control
C[C@]1(O)CC[C@H]2[C@@H]3CCc4cc(O)ccc4[C@H]3CC[C@@]21C,T/C,"dose: 0.5 mg/kg/injection, schedule: Q#A X014 (sc), vehicle: steriod suspending solution",115 % of control
same,T/C,"dose: 5.0 mg/kg/injection, schedule: Q#A X014 (sc), vehicle: steriod suspending solution",103 % of control
same,T/C,"dose: 50.0 mg/kg/injection, schedule: Q#A X014 (sc), vehicle: steriod suspending solution",74 % of control
CNC(C)=O,T/C,"dose: 125.0 mg/kg/injection, schedule: Q01DX007 (ip), vehicle: carboxymethylcellulose (CMC)",84 % of control
same,T/C,"dose: 250.0 mg/kg/injection, schedule: Q01DX007 (ip), vehicle: carboxymethylcellulose (CMC)",90 % of control and 106 % of control
same,T/C,"dose: 500.0 mg/kg/injection, schedule: Q01DX007 (ip), vehicle: carboxymethylcellulose (CMC)",71 % of control
same,T/C,"dose: 623.2 mg/kg/injection, schedule: Q01DX007 (ip), vehicle: carboxymethylcellulose (CMC)",72 % of control
same,T/C,"dose: 779.0 mg/kg/injection, schedule: Q01DX007 (ip), vehicle: carboxymethylcellulose (CMC)",75 % of control
same,T/C,"dose: 1038.66 mg/kg/injection, schedule: Q01DX007 (ip), vehicle: carboxymethylcellulose (CMC)",69 % of control
same,T/C,"dose: 1558.0 mg/kg/injection, schedule: Q01DX007 (ip), vehicle: carboxymethylcellulose (CMC)",58 % of control
same,T/C,"dose: 2000.0 mg/kg/injection, schedule: Q01DX007 (ip), vehicle: carboxymethylcellulose (CMC)",23 % of control
Cc1nc2nc(N)nc(N)c2nc1C,T/C,"dose: 10.0 mg/kg/injection, schedule: Q01DX007 (ip), vehicle: carboxymethylcellulose (CMC)",89 % of control
same,T/C,"dose: 11.46 mg/kg/injection, schedule: Q01DX007 (ip), vehicle: carboxymethylcellulose (CMC)",106 % of control
same,T/C,"dose: 20.0 mg/kg/injection, schedule: Q01DX007 (ip), vehicle: carboxymethylcellulose (CMC)",77 % of control
same,T/C,"dose: 22.92 mg/kg/injection, schedule: Q01DX007 (ip), vehicle: carboxymethylcellulose (CMC)",77 % of control
same,T/C,"dose: 40.0 mg/kg/injection, schedule: Q01DX007 (ip), vehicle: carboxymethylcellulose (CMC)",68 % of control
same,T/C,"dose: 45.85 mg/kg/injection, schedule: Q01DX007 (ip), vehicle: carboxymethylcellulose (CMC)",86 % of control
same,T/C,"dose: 80.0 mg/kg/injection, schedule: Q01DX007 (ip), vehicle: carboxymethylcellulose (CMC)",81 % of control
same,T/C,"dose: 91.7 mg/kg/injection, schedule: Q01DX007 (ip), vehicle: carboxymethylcellulose (CMC)",51 % of control
C[N+]1(CCC[N+]2(C)CC3C4C=CC(CC4)C3C2)CCOCC1 (stereo unspecified),T/C,"dose: 7.75 mg/kg/injection, schedule: Q01DX007 (ip), vehicle: saline",62 % of control
same,T/C,"dose: 15.5 mg/kg/injection, schedule: Q01DX007 (ip), vehicle: saline",52 % of control
same,T/C,"dose: 31.0 mg/kg/injection, schedule: Q01DX007 (ip), vehicle: saline",86 % of control
same,T/C,"dose: 62.0 mg/kg/injection, schedule: Q01DX007 (ip), vehicle: saline",45 % of control
O=C(O)c1ccc(-c2ccccc2)cc1,T/C,"dose: 50.0 mg/kg/injection, schedule: Q01DX007 (ip), vehicle: carboxymethylcellulose (CMC)",95 % of control
same,T/C,"dose: 100.0 mg/kg/injection, schedule: Q01DX007 (ip), vehicle: carboxymethylcellulose (CMC)",118 % of control
same,T/C,"dose: 200.0 mg/kg/injection, schedule: Q01DX007 (ip), vehicle: carboxymethylcellulose (CMC)",120 % of control
CCCN(C)/N=N/c1nc[nH]c1C(N)=O,T/C,"dose: 31.0 mg/kg/injection, schedule: Q01DX007 (ip), vehicle: carboxymethylcellulose (CMC)",55 % of control
same,T/C,"dose: 46.0 mg/kg/injection, schedule: Q01DX007 (ip), vehicle: carboxymethylcellulose (CMC)",37 % of control
same,T/C,"dose: 62.0 mg/kg/injection, schedule: Q01DX007 (ip), vehicle: carboxymethylcellulose (CMC)",34 % of control
CS(=O)(=O)OCC#CCOS(C)(=O)=O,T/C,"dose: 10.0 mg/kg/injection, schedule: Q01DX007 (ip), vehicle: saline",99 % of control
same,T/C,"dose: 20.0 mg/kg/injection, schedule: Q01DX007 (ip), vehicle: saline",84 % of control
same,T/C,"dose: 40.0 mg/kg/injection, schedule: Q01DX007 (ip), vehicle: saline",104 % of control
O=c1[nH]cc(F)c(=O)[nH]1,T/C,"dose: 3.12 mg/kg/injection, schedule: Q#A X014 (ip), vehicle: carboxymethylcellulose (CMC)",83 % of control
same,T/C,"dose: 6.25 mg/kg/injection, schedule: Q#A X014 (ip), vehicle: carboxymethylcellulose (CMC)",100 % of control
same,T/C,"dose: 6.3 mg/kg/injection, schedule: Q#A X014 (ip), vehicle: carboxymethylcellulose (CMC)",83 % of control
same,T/C,"dose: 9.5 mg/kg/injection, schedule: Q#A X014 (ip), vehicle: carboxymethylcellulose (CMC)",48 % of control
same,T/C,"dose: 12.5 mg/kg/injection, schedule: Q#A X014 (ip), vehicle: carboxymethylcellulose (CMC)",90 % of control
same,T/C,"dose: 12.66 mg/kg/injection, schedule: Q#A X014 (ip), vehicle: carboxymethylcellulose (CMC)",39 % of control
same,T/C,"dose: 15.2 mg/kg/injection, schedule: Q01DX007 (ip), vehicle: carboxymethylcellulose (CMC)",73 % of control and 89 % of control
same,T/C,"dose: 19.0 mg/kg/injection, schedule: Q#A X014 (ip), vehicle: carboxymethylcellulose (CMC)",2 % of control
same,T/C,"dose: 25.0 mg/kg/injection, schedule: Q#A X014 (ip), vehicle: carboxymethylcellulose (CMC)",25 % of control
same,T/C,"dose: 25.3 mg/kg/injection, schedule: Q01DX007 (ip), vehicle: carboxymethylcellulose (CMC)",76 % of control
same,T/C,"dose: 25.33 mg/kg/injection, schedule: Q01DX007 (ip), vehicle: carboxymethylcellulose (CMC)",53 % of control
C[C@@H]1C[C@](O)([C@@H](C)Cl)C(=O)O[C@@H]2CCN3CC=C(COC(=O)[C@]1(C)O)[C@H]23,T/C,"dose: 25.0 mg/kg/injection, schedule: Q01DX007 (ip), vehicle: saline",74 % of control
